The target of one experiment is MLL1-WDR5 PPI (Homo sapiens (Human), UniProt P61964). The experiment in a line: fluorescent probe assay of MLL1-WDR5 protein-protein interaction inhibition. Type of experiment: binding. The note with it: fluorescent probe based on MLL1 peptide, incubation 0.5 hrs, read-out: MLL1-WDR5 PPI inhibiting activity IC50. The method, then:
In the present disclosure, a fluorescent molecular probe was constructed based on a MLL1 peptide fragment binding to WDR5, for use as a method for study on an aniline compound interfering with WDR5 protein-protein interaction, to determine an inhibition rate of the aniline compound at various concentrations, and then compute the IC50 value. Specific experimental steps: 20 μL of WDR5 protein, 20 μL of a fluorescent probe, and 20 μL of a compound of different concentration gradients were added to a 384-well plate respectively. After incubation for 0.5 hrs, the fluorescence was read on a multifunctional microplate reader at an excitation wavelength of 485 nm and an emission wavelength of 535 nm, to compute the mP value. The inhibition rate was computed as per the formula below, and then the IC50 value was computed using GraphPad software.

The subject of experiment [1] is Molm-13 human acute myeloid leukemia cells. The experiment in a line: anti-proliferative activity against leukemia cells Molm-13. Type of experiment: cell-based. Conditions: Homo sapiens, MOLM-13, Molm-13 cells. The text has this: (§1) Some compounds of the present disclosure have also been tested for the antiproliferative activity against leukemia cells.
Experiment [2] relates to methylation level of H3K4. The experiment in a line: inhibition of the methylation level of H3K4 (methyltransferase activity). Type of experiment: biochemical.
For experiment [3], the system named is MV4-11 human acute mononuclear leukemia cells. Kind of experiment: anti-proliferative activity against leukemia cells MV4-11. Type of experiment: cell-based. Conditions: Homo sapiens, MV4-11, MV4-11 cells; read-out: GI50 (MV-411).
Text: as §1

Consider `CN1CCN(C(=O)c2ccc(-c3ccc(N4CCN(C)CC4)c(Nc4ncnc(Cl)c4N)c3)c(F)c2)CC1` [Example 38, (3″-((5-amino-6-chloropyrimidin-4-yl)amino)-2-fluoro-4″-(4-methylpiperazin-1-yl)-[1,1′-biphenyl]-4-yl)(4-methylpiperazin-1-yl)methanone], for which the IC50 at MLL1-WDR5 PPI came to 0.652 µM. Also, the GI50 in experiment [1] amounted to 26 µM; in experiment [3], 20.8 µM. Also, the “Whether the methylation level of H3K4 was inhibited” value in experiment [2] is “Yes”.
In the case of `CN1CCN(c2ccc(-c3cccc(N)c3)cc2Nc2ncnc(Cl)c2N)CC1` [Example 39, N-(3′-amino-4-(4-methylpiperazin-1-yl)-[1,1′-biphenyl]-3-yl)-6-chloropyrimidine-4,5-diamine], the half-inhibitory concentration (IC50) at MLL1-WDR5 PPI is 0.675 µM. For the same compound, the GI50 stood at 28.6 µM in experiment [1] and 32.2 µM in experiment [3]. For the same compound, the “Whether the methylation level of H3K4 was inhibited” value in experiment [2] is “Yes”.
With `CN1CCN(c2ccc(-c3cccc(NC(=O)C4CCOCC4)c3)cc2Nc2ncnc(Cl)c2N)CC1` [Example 40, N-(3″-((5-amino-6-chloropyrimidin-4-yl)amino)-4″-(4-methylpiperazin-1-yl)-[1, 1′-biphenyl]-3-yl)tetrahydro-2H-pyran-4-carboxamide], the IC50 on MLL1-WDR5 PPI turned out to be 0.328 µM. The GI50 in experiment [1] was 26.2 µM; in experiment [3] it was 28.4 µM. Also, in experiment [2], the “Whether the methylation level of H3K4 was inhibited” value is “Yes”.
In the case of `CN1CCC(C(=O)Nc2cccc(-c3ccc(N4CCN(C)CC4)c(Nc4ncnc(Cl)c4N)c3)c2)CC1` [Example 41, N-(3″-((5-amino-6-chloropyrimidin-4-yl)amino)-4″-(4-methylpiperazin-1-yl)-[1,1′-biphenyl]-3-yl)-1-methylpiperidin-4-carboxamide], on MLL1-WDR5 PPI, the IC50 came to 0.329 µM. The concentration for 50% growth inhibition (GI50) came out at 24.4 µM in experiment [1] and 25.8 µM in experiment [3]. In addition, in experiment [2], the “Whether the methylation level of H3K4 was inhibited” value is given as “Yes”.
Regarding `COC(=O)c1cn(-c2ccc(N3CCN(C)CC3)c(Nc3ncnc(Cl)c3N)c2)nn1` [Example 46, Methyl 1-(3-((5-amino-6-chloropyrimidin-4-yl)amino)-4-(4-methylpiperazin-1-yl)phenyl)-1H-1,2,3-triazole-4-carboxylate], the half-inhibitory concentration (IC50) on MLL1-WDR5 PPI stood at 0.865 µM. Besides, the concentration for 50% growth inhibition (GI50) in experiment [1] came to 11.7 µM; in experiment [3], 22.4 µM. Moreover, the “Whether the methylation level of H3K4 was inhibited” value in experiment [2] is “Yes”.
For `CN1CCN(c2ccc(-n3cc(C(=O)N4CCOCC4)nn3)cc2Nc2ncnc(Cl)c2N)CC1` [Example 47, (1-(3-((5-amino-6-chloropyrimidin-4-yl)amino)-4-(4-methylpiperazin-1-yl)phenyl)-1H-1,2,3-triazole-4-yl)(morpholino)methanone], in that order: 0.24 µM, 14.7 µM, 10.6 µM and “Yes”.
As to `CN1CCN(c2ccc(-c3ccc(C(=O)N(C)C)cc3)c(F)c2Nc2ncnc(Cl)c2N)CC1` [Example 54, 3″-((5-amino-6-chloropyrimidin-4-yl)amino)-2′-fluoro-N,N-dimethyl-4″-(4-methylpiperazin-1-yl)-[1,1′-biphenyl]-4-carboxamide], the 50% inhibitory concentration (IC50) on MLL1-WDR5 PPI worked out at 0.24 µM. The concentration for 50% growth inhibition (GI50) stood at 16.2 µM in experiment [1] and 17.5 µM in experiment [3]. Further, the “Whether the methylation level of H3K4 was inhibited” value in experiment [2] is on record as “Yes”.
On to `CN1CCN(c2ccc(-c3ccc(C(=O)N4CCOCC4)cc3)c(F)c2Nc2ncnc(Cl)c2N)CC1` [Example 55, (3″-((5-amino-6-chloropyrimidin-4-yl)amino)-2′-fluoro-4″-(4-methylpiperazin-1-yl)-[1,1′-biphenyl]-4-yl)(morpholino)methanone], for which the 50% inhibitory concentration (IC50) at MLL1-WDR5 PPI stood at 0.117 µM. In addition, the 50% growth inhibitory concentration (GI50) in experiment [1] was 28.9 µM; in experiment [3] it was 22.5 µM. Moreover, in experiment [2], the “Whether the methylation level of H3K4 was inhibited” value is listed as “Yes”.
As for `CN1CCN(c2ccc(-c3ccc(C(=O)NCCN4CCOCC4)cc3)c(F)c2Nc2ncnc(Cl)c2N)CC1` [Example 56], on MLL1-WDR5 PPI, the IC50 was found to be 0.102 µM. For the same compound, the results for the GI50 in experiment [1] and in experiment [3] were 8.43 µM and 9.04 µM, respectively. In addition, the “Whether the methylation level of H3K4 was inhibited” value in experiment [2] is recorded as “Yes”.
Regarding `CN1CCN(c2ccc(-c3ccc(C(=O)NCCCN4CCOCC4)cc3)c(F)c2Nc2ncnc(Cl)c2N)CC1` [Example 57], the IC50 on MLL1-WDR5 PPI came to 0.069 µM. The concentration for 50% growth inhibition (GI50) worked out at 17.6 µM in experiment [1] and 22.3 µM in experiment [3]. In addition, the “Whether the methylation level of H3K4 was inhibited” value in experiment [2] is “Yes”.
Regarding `CCN1CCN(C(=O)c2ccc(-c3ccc(N4CCN(C)CC4)c(Nc4ncnc(Cl)c4N)c3F)cc2)CC1` [Example 58, (3″-((5-amino-6-chloropyrimidin-4-yl)amino)-2′-fluoro-4″-(4-methylpiperazin-1-yl)-[1,1′-biphenyl]-4-yl)(4-ethylpiperazin-1-yl)methanone], the concentration for half-maximal inhibition (IC50) on MLL1-WDR5 PPI was 0.112 µM. For the same compound, the concentration for 50% growth inhibition (GI50) worked out at 20.3 µM in experiment [1] and 19.5 µM in experiment [3]. The “Whether the methylation level of H3K4 was inhibited” value in experiment [2] is on record as “Yes”.
As for `CN1CCN(c2ccc(-c3ccc(NC(=O)C4CCOCC4)cc3)c(F)c2Nc2ncnc(Cl)c2N)CC1` [Example 59, N-(3″-((5-amino-6-chloropyrimidin-4-yl)amino)-2′-fluoro-4″-(4-methylpiperazin-1-yl)-[1,1′-biphenyl]-4-yl)tetrahydro-2H-pyran-4-carboxamide], the 50% inhibitory concentration (IC50) on MLL1-WDR5 PPI amounted to 0.176 µM. The 50% growth inhibitory concentration (GI50) amounted to 31.2 µM in experiment [1] and 26.4 µM in experiment [3]. Besides, the “Whether the methylation level of H3K4 was inhibited” value in experiment [2] was “Yes”.
The like results for `CN1CCC(C(=O)Nc2ccc(-c3ccc(N4CCN(C)CC4)c(Nc4ncnc(Cl)c4N)c3F)cc2)CC1` [Example 60, N-(3″-((5-amino-6-chloropyrimidin-4-yl)amino)-2′-fluoro-4″-(4-methylpiperazin-1-yl)-[1,1′-biphenyl]-pyridin-4-yl)-1-methylpiperidin-4-carboxamide] were, in that order, 0.105 µM, 22.6 µM, 22.7 µM and “Yes”.
`CN1CCN(c2ccc(-c3ccc(NC(=O)CC4CCOCC4)cc3)c(F)c2Nc2ncnc(Cl)c2N)CC1` [Example 61]: the IC50 on MLL1-WDR5 PPI is 0.085 µM. Further, the GI50 in experiment [1] was determined as 20.5 µM; in experiment [3], 21.1 µM. Further, in experiment [2], the “Whether the methylation level of H3K4 was inhibited” value was “Yes”.
Consider `CC(C)C(N)C(=O)Nc1ccc(-c2ccc(N3CCN(C)CC3)c(Nc3ncnc(Cl)c3N)c2F)cc1` (stereo not shown) [Example 62, 2-amino-N-(3″-((5-amino-6-chloropyrimidin-4-yl)amino)-2′-fluoro-4″-(4-methylpiperazin-1-yl)-[1,1′biphenylyl]-4-yl)-3-methylbutyramide], for which, on MLL1-WDR5 PPI, the half-maximal inhibitory concentration (IC50) came to 0.034 µM. Moreover, the GI50 came to 22 µM in experiment [1] and 17.4 µM in experiment [3]. Moreover, in experiment [2], the “Whether the methylation level of H3K4 was inhibited” value is listed as “Yes”.
As for `CN1CCN(c2ccc(-c3ccc(NC(=O)CN)cc3)c(F)c2Nc2ncnc(Cl)c2N)CC1` [Example 64, 2-amino-N-(3″-((5-amino-6-chloropyrimidin-4-yl)amino)-2′-fluoro-4″-(4-methylpiperazin-1-yl)-[1,1′biphenylyl]-4-yl)acetamide], on MLL1-WDR5 PPI, the IC50 is 0.033 µM. The GI50 amounted to 28.6 µM in experiment [1] and 20.4 µM in experiment [3]. In addition, the “Whether the methylation level of H3K4 was inhibited” value in experiment [2] is “Yes”.

The record behind these values is patent US12453731B2, “Aniline-based WDR5 protein-protein interaction inhibitor, and preparation method and use thereof” (CHINA PHARMACEUTICAL UNIVERSITY, priority 2019, dated 2025).
